Assay results reported in PMC12631003 (2025).

Columns and labels:
[1] = tested on: miRNA21 (RNA, miRNA) GUUGACUGUUGAAUCUCAUGGCAAC; assay: microscale thermophoresis; conditions: Na+ (185 mM NaCl, 8 mM Na2HPO4), no Mg2+; 1 mM EDTA, 0.05% Tween-20; 5 nM RNA; compounds up to 100-300 µM
[2] = tested on: pre-let-7a-1 (RNA, miRNA) UUAGGGUCACACCCACCACUGGGAGAUAA; assay: microscale thermophoresis; conditions: Na+ (185 mM NaCl, 8 mM Na2HPO4), no Mg2+; 1 mM EDTA, 0.05% Tween-20; 5 nM RNA

| Compound | binding [1] | K d [2] [µM] |
| --- | --- | --- |
| CCc1nc(C(N)=O)c(Nc2ccc(N3CCC(N4CCN(C)CC4)CC3)c(OC)c2)nc1NC1CCOCC1 | no | 29.4 |
| CN1CCN(c2ccc(C(=O)Nc3n[nH]c4ccc(Cc5cc(F)cc(F)c5)cc34)c(NC3CCOCC3)c2)CC1 | no | 5.0 |
| Cn1cnc2c(F)c(Nc3ccc(Br)cc3Cl)c(C(=O)NOCCO)cc21 | – | 217 |
| N#CC[C@H](C1CCCC1)n1cc(-c2ncnc3[nH]ccc23)cn1 | – | 82.4 |
